Laboratory results published in patent publication US11623924B2, “Modulators of alpha-1 antitrypsin” (Vertex Pharmaceuticals Incorporated, priority 2018, dated 2023).

Molecular target: T1, NL20 human bronchial epithelial cells expressing human Z-AAT (Homo sapiens, UniProt P01009, E366K)
T1 construct: expressed in transfected cells; host or cells: NL20 human bronchial epithelial cells (NL20-SI line, doxycycline added)
Test: AAT Function Assay (MSD Assay NL20-SI Cell Line)
Assay type: cell-based
Conditions: NL20 Func. (EC50), functionally active AAT (AAT-hNE complex) in supernatant of NL20 cells expressing human Z-AAT
Procedure: A. AAT Function Assay (MSD Assay NL20-SI Cell Line)
Alpha-1 antitrypsin (AAT) is a SERPIN (serine protease inhibitor) that inactivates enzymes by binding to them covalently. This assay measured the amount of functionally active AAT in a sample in the presence of the disclosed compounds 1-215 by determining the ability of AAT to form an irreversible complex with human neutrophil Elastase (hNE). In practice, the sample (cell supernatant, blood sample, or other) was incubated with excess hNE to allow AAT-Elastase complex to be formed with all functional AAT in the sample. This complex was then captured to a microplate coated with an anti-AAT antibody. The complex captured to the plate was detected with a labeled anti-Elastase antibody and quantitated using a set of AAT standards spanning the concentration range present in the sample. Meso Scale Discovery (MSD) plate reader, Sulfo-tag labeling, and microplates were used to provide high sensitivity and wide dynamic range.
• 1. Harvest NL20 human bronchial epithelial cells expressing human Z-AAT in OptiMEM™ containing Pen/Strep (P/S) • 2. Seed at 16,000 cells/well in 30 μL (384 well plate) • 3. Centrifuge plates briefly up to speed (1200 rpm) and place into 37° C. incubator overnight Day 2: Compound Addition and Coating Plates with Capture Antibody Compound Addition: • 1. Dispense 40 μL of OptiMEM™ (P/S) with doxycycline (1:1000 stock=0.1 μM final) to each well of the compound plate using a multidrop Combi in hood • 2. Remove cell plate from incubator, flip/blot and take immediately to Bravo to transfer compounds • 3. Return plates to incubator overnight Coat MSD Plates • 1. Dilute capture antibody (Polyclonal Goat anti-AAT) to 5 μg/mL (1:200) in PBS (no BSA). • 2. Dispense 25 μL of diluted capture antibody into all wells of MSD 384-well High Bind plate using the Multidrop equipped with a standard cassette. • 3. Incubate overnight at 4° C. Prepare Blocker A (BSA) Solutions • 1. Prepare solution of 5% MSD Blocker A (BSA) following the manufacturer's instructions. • 2. Further dilute the 5% MSD Blocker A in PBS to 1% (Blocker A) as needed. Day 3: Run MSD Assay
Block Plates • 1. Wash plate 1× with 50 μL Wash buffer (PBS+0.5% Tween 20), and adds 35 μL 5% Block A buffer to block non-specific binding on washer dispenser • 2. Rotate plates on shaker for 1 hour at 600 rpm
Prepare M-AAT Standards • 1. Dilute M-AAT stock to 1.6 μg/mL in 1% BSA Blocker A (Stock in −70° C.); then prepare 12×1:2 serial dilutions in 1% Blocker A • 2. The top starting final concentration on MSD plate is 320 ng/mL. These dilutions correspond to a final concentration of 320, 160, 80, 40, 20, 10, 5, 2.5, 1.25, 0.625, 0.312, 0.156 ng/mL.
Dilution Plate • 1. Add 80 μL of 1% Assay buffer to all wells except columns 1/24 (standards) with Multidrop Combi • 2. Add diluted standards to columns 1 and 24 • 3. Centrifuge dilution plates 1200 rpm briefly
Cell Plate • 1. Aspirate columns which will have the standards from the cell plates in the hood using 16-pin aspirator
Prepare Human Neutrophil Elastase (hNE) • 1. Prepare 1 μg/mL Human Neutrophil Elastase by diluting in 1% Blocker A. • a. Small 100 μg vial—add 1 mL PBS (100 μg/mL) • i. This can then be diluted 1:100 in 1% Assay Buffer for a final 1 μg/mL concentration
MSD—Add hNE (20 μL/well) • 1. After the MSD plate has blocked for at least 1 hour, wash plate 1× with 50 μL Wash buffer (PBS+0.5% Tween 20) and then add 20 μL hNE to each well
Bravo—Cell Plate—Dilution Plate—MSD Plate
Using the Bravo aspirate 10 μL from the cell plate, transfer to the dilution plate (9-fold dilution)
• 1. Mix 25 μL 3×, then aspirate 5 μL, transfer to MSD plate (5-fold dilution) • 2. Mix 10 μL 3×. Total dilution is 45 fold. • 3. Shake plates at 600 rpm for 1.5 hours
Add Functional detection hNE antibody • 1. Wash plate 1× with wash buffer • 2. […]

T1 sequence (P01009 25-418 E366K): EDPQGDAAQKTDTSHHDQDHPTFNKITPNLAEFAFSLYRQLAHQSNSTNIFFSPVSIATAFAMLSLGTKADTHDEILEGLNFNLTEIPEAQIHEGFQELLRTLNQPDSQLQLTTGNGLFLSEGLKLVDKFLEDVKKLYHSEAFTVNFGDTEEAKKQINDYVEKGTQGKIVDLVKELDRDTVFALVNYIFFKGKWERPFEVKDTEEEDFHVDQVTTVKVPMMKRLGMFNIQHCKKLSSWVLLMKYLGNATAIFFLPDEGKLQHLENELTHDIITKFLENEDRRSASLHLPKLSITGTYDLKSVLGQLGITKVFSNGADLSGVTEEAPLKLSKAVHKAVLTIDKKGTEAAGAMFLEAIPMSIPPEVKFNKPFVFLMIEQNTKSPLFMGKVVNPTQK

Compound | EC50 [nM]
CC(C)c1c(CCC(=O)O)c2cc3[nH]ncc3nc2n1-c1ccc(F)cc1 [Compound 202, 3-[4-(4-fluorophenyl)-5-isopropyl-2,4,10,11-tetrazatricyclo[7.3.0.03,7]dodeca-1,3(7),5,8,11-pentaen-6-yl]propanoic Acid] | > 3000

Same assay, conditions: functionally active AAT (AAT-hNE complex) in supernatant of NL20 cells expressing human Z-AAT; read-out: NL20 Func. (EC50)

Compound | EC50 [nM]
O=C(O)C1CC2(C1)CC(c1c(C3CCOCC3)n(-c3ccc(F)cc3)c3cc4cn[nH]c4c(F)c13)C2 (racemic) [Compound 135, 6-[8-fluoro-5-(4-fluorophenyl)-6-tetrahydropyran-4-yl-1H-pyrrolo[2,3-f]indazol-7-yl]spiro[3.3]heptane-2-carboxylic acid] | < 1160
Fc1ccc(-n2c(C3CCOCC3)c(CCCn3ccnc3)c3cc4[nH]ncc4cc32)cc1 [Compound 165] | 1160 to 3000
Cc1cc(-n2c(C(C)C)cc3c(I)c4[nH]ncc4cc32)ccc1F [Compound 48, 5-(4-fluoro-3-methyl-phenyl)-8-iodo-6-isopropyl-1H-pyrrolo[2,3-f]indazole] | > 3000
Cc1cc(-n2c(C(C)C)cc3c(F)c4[nH]ncc4cc32)ccc1F [Compound 50, 8-fluoro-5-(4-fluoro-3-methyl-phenyl)-6-isopropyl-1H-pyrrolo[2,3-f]indazole] | > 3000
O=C(O)C1CC2(C1)CC(c1c(C3CCOC3)n(-c3ccc(F)cc3)c3cc4cn[nH]c4cc13)C2 (single isomer, unassigned) [Compound 142, 6-[5-(4-fluorophenyl)-6-tetrahydrofuran-3-yl-1H-pyrrolo[2,3-f]indazol-7-yl]spiro[3.3]heptane-2-carboxylic Acid] | > 3000
COCC(C)(C)c1c(CCC(=O)O)c2cc3[nH]ncc3cc2n1-c1ccc(F)cc1 [Compound 177] | 1160 to 3000
O=C(O)[C@H]1C[C@H](c2c(C3CCOCC3)n(-c3ccc(F)cc3)c3cc4cn[nH]c4cc32)C1 [Compound 113] | 1160 to 3000
CC(C)c1c(CCC(=O)O)c2cc3[nH]ncc3cc2n1-c1ccccc1 [Compound 41, 3-(6-isopropyl-5-phenyl-1H-pyrrolo[2,3-f]indazol-7-yl)propanoic Acid] | 1160 to 3000
NC(=O)[C@H]1C[C@@H](c2c(C3CCOCC3)n(-c3ccc(F)cc3)c3cc4cn[nH]c4cc32)C1 [Compound 160] | > 3000
COCC(C)(C)c1c(C2CC(C)(C(=O)O)C2)c2cc3[nH]ncc3cc2n1-c1ccc(F)cc1 (mixture of isomers) [Compound 176] | < 1160
[2H]C([2H])([2H])C([2H])(c1c(CCC(=O)O)c2cc3[nH]ncc3cc2n1-c1ccc(F)cc1)C([2H])([2H])[2H] [Compound 193, 3-[5-(4-fluorophenyl)-6-[1,2,2,2-tetradeuterio-1-(trideuteriomethyl)ethyl]-1H-pyrrolo[2,3-f]indazol-7-yl]propanoic Acid] | 1160 to 3000
COCC(C)(C)c1c(CCCNC(=O)OCc2ccccc2)c2cc3[nH]ncc3cc2n1-c1ccc(F)cc1 [Compound 181] | > 3000
COCCc1c(C(C)(C)COC)n(-c2ccc(F)cc2)c2cc3cn[nH]c3cc12 [Compound 178] | 1160 to 3000

More lines, now with the values ahead:

EC50 [nM] | Compound
> 3000 | NC(=O)N1CCCC(Cc2c(C3CCOCC3)n(-c3ccc(F)cc3)c3cc4cn[nH]c4cc23)C1 (stereo not shown) [Compound 155, 3-[[5-(4-fluorophenyl)-6-tetrahydropyran-4-yl-1H-pyrrolo[2,3-f]indazol-7-yl]methyl]piperidine-1-carboxamide]
1160 to 3000 | [2H]c1c([2H])c(-n2c(C(C)C)c(CCC(=O)O)c3cc4[nH]ncc4cc32)c([2H])c([2H])c1F [Compound 188, 3-[6-isopropyl-5-(2,3,5,6-tetradeuterio-4-fluoro-phenyl)-1H-pyrrolo[2,3-f]indazol-7-yl]propanoic Acid]
< 1160 | Cc1cc(-n2c(C3CCOCC3)c(C3CC4(CC(C(=O)O)C4)C3)c3cc4[nH]ncc4cc32)ccc1F (racemic) [Compound 90]
< 1160 | O=C(O)[C@H]1CC[C@H](c2c(C3CCOCC3)n(-c3ccc(F)c(F)c3)c3cc4cn[nH]c4cc32)CC1 [Compound 75, (1r,4r)-4-(5-(3,4-difluorophenyl)-6-(tetrahydro-2H-pyran-4-yl)-1,5-dihydropyrrolo[2,3-f]indazol-7-yl)cyclohexane-1-carboxylic Acid]
< 1160 | [H][C@]1(C(=O)O)C[C@]2(C1)C[C@@]([H])(c1c(C3CCOCC3)n(-c3ccc(F)c(C)c3)c3cc4cn[nH]c4cc31)C2 (single isomer, unassigned) [Compound 91]
> 3000 | Cc1cc(-n2c(C3(C)COC3)c(S(C)(=O)=O)c3cc4[nH]ncc4cc32)ccc1F [Compound 139, 5-(4-fluoro-3-methyl-phenyl)-6-(3-methyloxetan-3-yl)-7-methylsulfonyl-1H-pyrrolo[2,3-f]indazole]
< 1160 | O=C(O)C1CC2(C1)CC(c1c(C3CCOCC3)n(-c3ccc(F)cc3)c3cc4cn[nH]c4c(F)c13)C2 (single isomer, unassigned) [Compound 136, 6-[8-fluoro-5-(4-fluorophenyl)-6-tetrahydropyran-4-yl-1H-pyrrolo[2,3-f]indazol-7-yl]spiro[3.3]heptane-2-carboxylic acid]
> 3000 | O=C(O)C1CC2(C1)CC(c1c(C3CCOC3)n(-c3ccc(F)cc3)c3cc4cn[nH]c4cc13)C2 (single isomer, unassigned) [Compound 141, 6-[5-(4-fluorophenyl)-6-tetrahydrofuran-3-yl-1H-pyrrolo[2,3-f]indazol-7-yl]spiro[3.3]heptane-2-carboxylic acid]
< 1160 | CC(C)c1c(C2CC3(CC(C(=O)O)C3)C2)c2cc3[nH]ncc3cc2n1-c1ccc(F)cc1 (single isomer, unassigned) [Compound 35, 6-[5-(4-fluorophenyl)-6-isopropyl-1H-pyrrolo[2,3-f]indazol-7-yl]spiro[3.3]heptane-2-carboxylic acid]
> 3000 | CC(C)c1c(CCC(=O)O)c2cc3cn[nH]c3cc2n1-c1ccc(F)cc1 [Compound 201, 3-[7-(4-fluorophenyl)-6-isopropyl-1H-pyrrolo[3,2-f]indazol-5-yl]propanoic Acid]
1160 to 3000 | CC(C)c1c(CC2(C(=O)O)CC2)c2cc3[nH]ncc3cc2n1-c1cccc(C(F)(F)F)c1 [Compound 39, 1-[[6-isopropyl-5-[3-(trifluoromethyl)phenyl]-1H-pyrrolo[2,3-f]indazol-7-yl]methyl]cyclopropanecarboxylic Acid]
< 1160 | Cc1cc(-n2c(C(C)C)c(CC(C)C(=O)O)c3cc4[nH]ncc4cc32)ccc1F (single isomer, unassigned) [Compound 20]
< 1160 | Cc1c2[nH]ncc2cc2c1c(C1=CC3(C1)CC(C(=O)O)C3)c(C1CCOCC1)n2-c1ccc(F)c(F)c1 (stereo not shown) [Compound 132, 2-[5-(3,4-difluorophenyl)-8-methyl-6-tetrahydropyran-4-yl-1H-pyrrolo[2,3-f]indazol-7-yl]spiro[3.3]hept-2-ene-6-carboxylic Acid]
< 1160 | Cc1cc(-n2c(C(C)C)c(C3CC3C(=O)O)c3cc4[nH]ncc4cc32)ccc1F (single isomer, unassigned) [Compound 14, 2-[5-(4-fluoro-3-methyl-phenyl)-6-isopropyl-1H-pyrrolo[2,3-f]indazol-7-yl]cyclopropanecarboxylic acid]
